Series [1] can be described thus: Plasma concentration of quinagolide and active metabolites in sheep with intravaginal rings. It is filed as in vivo. The note with it: first and second sheep trials. From the text:
During the first and second sheep trials, the plasma concentration of quinagolide (Q) was monitored over the 28 day period. The plasma concentrations of active metabolites (M1 and M2: see FIG. 13) were also monitored in the sheep. The results are illustrated in FIG. 10 (see Tables 14 and 17 for quinagolide dose).

Series [2] in a line: PK variables for quinagolide administered by an intravaginal ring in clinical study 000155. In kind it is in vivo, healthy women. The conditions noted are these: for Tmax: median. The procedure:
Following intravaginal administration the plasma concentration of quinagolide increased to reach a maximum at approximately 37-39 hours with a subsequent slow decline until the ring was removed (see FIG. 15). The mean time for reaching a maximum serum concentration was similar between all three dose groups but with substantial inter-individual variation. Cmax increased with increasing dose while the mean terminal half-life estimations were appropriately the same in all three doses (Table 21: above).

Series [3] in a line: In vivo release profile of vaginal rings in clinical study 000155. Details: species or system healthy women.
Where [4] appears, read: vaginal ring dose load 400 μg, target release 5 μg/day.
Setting [5] is: vaginal ring dose load 800 μg, target release 10 μg/day.
Where [6] appears, read: vaginal ring dose load 1200 μg, target release 15 μg/day.

Structures are written as SMILES. Bounds are passed on as bounds.

The term Cmax denotes the highest concentration seen after dosing. What is called Tmax is the time at which the peak concentration occurs.

As to `CCCN1CC(NS(N)(=O)=O)CC2Cc3c(O)cccc3CC21` (centres unmarked) [Batch M2], the “molar plasma concentration, fold lower than the quinagolide” value in series [1] is reported as “approximately 10 fold”.

As to `CCCN1C[C@@H](NS(=O)(=O)N(CC)CC)C[C@@H]2Cc3c(O)cccc3C[C@H]21` [quinagolide, N,N-diethyl-N′-[(3S,4aS, 10aR)-6-hydroxy-1-propyl-1,2,3,4,4a,5,10,10a-octahydrobenzo[g]quinolin-3-yl]sulfamide], the quinagolide concentration in the plasma at any point during the study in series [1] is no more than 50 pg/mL. The “AUC Day 0-28 (Hpg/mL)” value was 738 (236) Hpg/mL in series [2] (400 μg intravaginal ring, Mean (SD)); 1497 (379) Hpg/mL in series [2] (800 μg intravaginal ring, Mean (SD)); 3297 (1040) Hpg/mL in series [2] (1200 μg intravaginal ring, Mean (SD)). Besides, the Cmax came to 3.4 pg/mL in series [2] (female, human, plasma, 400 ug, 400 μg intravaginal ring, Mean (SD)); 5.3 pg/mL in series [2] (female, human, plasma, 800 ug, 800 μg intravaginal ring, Mean (SD)); 10.9 pg/mL in series [2] (female, human, plasma, 1200 ug, 1200 μg intravaginal ring, Mean (SD)). In addition, the Tmax is 48 h in series [2] (female, human, plasma, 400 ug, 400 μg intravaginal ring); 48 h in series [2] (female, human, plasma, 800 ug, 800 μg intravaginal ring); 36 h in series [2] (female, human, plasma, 1200 ug, 1200 μg intravaginal ring). Also, the half-life in series [2] (female, human, plasma, other: intravaginal ring, 400 ug, printed in the 400 μg line only, Mean (SD), read-out: T½ (converted)) is 14 h. For the same molecule, the “time at which plasma concentration of quinagolide reached a maximum” value in series [2] (intravaginal administration, all three dose groups) fell in the range of 37 to 39 h. For the same molecule, the “Average release 35 Days” value in series [3] (setting [4]) turned out to be 9.4 µg/day; in series [3] (setting [5]), 16.8 µg/day; in series [3] (setting [6]), 21.3 µg/day. Besides, the “Average release 7 days” value was determined as 10.4 µg/day in series [3] (setting [4]), 24.1 µg/day in series [3] (setting [5]) and 43.4 µg/day in series [3] (setting [6]). Besides, the “Average release 28 days” value is 8.8 µg/day in series [3] (setting [4]), 12.6 µg/day in series [3] (setting [5]) and 29.7 µg/day in series [3] (setting [6]).

Consider `CCCN1CC(NS(=O)(=O)NCC)CC2Cc3c(O)cccc3CC21` (centres unmarked) [Batch M1], for which, in series [1], the “molar plasma concentration, fold lower than the quinagolide” value is “approximately 10 fold”.

(Values after patent US20180008535A1, “Drug-Device Unit Containing Quinagolide” (Ferring B.V., priority 2014, published 2018).)
